Measured values from US4668677A, “4-phenylphthalazine derivatives, their preparation and their use as pharmaceuticals” (Mitsubishi Chemical Industries Limited, priority 1984, dated 1987).
Like-named read-outs stand apart in the source and are kept apart here.

Columns and labels:
[1] = tested on: femoral artery; assay: Action on blood pressure in femoral artery; assay type: in vivo, rabbit (male New Zealand White)
Procedure: (§1) Male New Zealand White rabbits (body weight of 2.8 Kg to 3.5 Kg) were used and anesthetized with pentobarbital sodium. Blood flow volumes in the carotid artery and femoral artery were measured and recorded via a non-blood observing type of a probe for measuring blood flow volume. Also, blood pressure in femoral artery was simultaneously measured and recorded with measurement of blood flow.
(§2) The compound of this invention was dissolved in an aqueous solution containing 1% tartaric acid and 1% dimethylacetamide, while papaverine hydrochloride dissolved in 0.9% physiological saline. These test compounds were intravenously given through a residual polyethylene tube within femoral vein.

[2] = tested on: carotid artery; assay: Action on blood flow volume in carotid artery; assay type: in vivo, rabbit (male New Zealand White)
Procedure: as §1, §2

[3] = in vivo; conditions: rat, po, rats
[4] = tested on: blood platelets; assay: Activity to inhibit the aggregation of blood platelets (collagen, ex vivo after oral administration); assay type: in vivo, rat (male Wistar-ST strain); conditions: Rattus norvegicus, Platelet
Procedure: Male Wistar-ST strain rats of an average body weight of 250 g were used, a group consisting of 8 animals. The test compound indicated in the following Table 1 was orally administered to rats in the form of a suspension in a 1% tragacanth aqueous solution at 4 ml/Kg (the test compound 10 mg/Kg).
One hour after the administration, blood samples were obtained from the carotid artery by means of a cannule. […] Tubes were turned upside-down and then subjected to centrifugation at 200×g over 15 minutes to assign the supernatant as a platelet-rich plasma (PRP). The residue was further centrifuged at […] over 15 minutes to assign the supernatant as a platelet-poor plasma (PPP). These supernatants were applied for determining the ability to aggregate blood platelets. […] As an aggregation inducing agent, collagen (availale from Hormon-chemie A.G.) was used at a concentration of 7 to 10 μg/ml.
Inhibitory rate to aggregate blood platelets was calculated according to the following equation: [formula] A: […] in the group to which the 1% tragacanth solution alone was given (Control)
B: Aggregation rate in the group to which the tragacanth solution of the test compound was given.

[5] = tested on: mice; assay: Anti-thrombotic activity: arachidonic acid-induced mortality in mice; assay type: in vivo, mouse (male ICR-JCL strain); conditions: for Survival time of dead mice: arachidonic acid 100 mg/Kg i.v.; for Mortality: arachidonic acid 100 mg/Kg i.v. after 1 hour
Procedure: Male ICR-JCL strain mice with an average body weight of about 25 g and male New Zealand White rabbits with an average body weight of about 3 Kg were used.
Where mice were used as experimental animals, a suspension of the test compound indicated in Table 3 in a 1% tragacanth aqueous solution was orally administered to animals at 20 ml/Kg. One hour after the administration, an arachidonic acid (PL-biochemical Co., Inc.) solution dissolved in a 0.1M sodium carbonate aqueous solution was intravenously given at 100 mg/Kg. Evaluation of activity was effected with the time from the administration of arachidonic acid up to the death of animals as well as mortality.

[6] = tested on: PGI2-like substance in vessel walls; assay: Influence on production of PGI2-like substance in vessel walls (ADP aggregation with carotid artery ring); assay type: in vivo, rat (male Wistar-ST strain); conditions: 1 hour, 10 μM ADP
Procedure: Male Wistar-ST strain rats with an average weight of about 250 g were used as experimental animals. After fasted for 18 hours, 6.3 ml of blood sample were obtained from corotid artery and immediately thereafter 0.7 ml of an anticoagulant (3.8% sodium citrate) was added and the sample was centrifuged at 200×g over 15 minutes to take platelet-rich plasma (PRP). The same procedures as above were carried out, using 5 to 6 rats, whereby 5-6 ml as normal PRP were stored and employed.
Reference aggregation values were determined by pouring 1 ml each of stored PRP into plastic test tubes, incubating them at 22° C. for 10 minutes and then determining aggregation rate. As an aggregation inducing agent, one employed 10 μM ADP (available from Sigma Co., Inc.)
A suspension of the compound of this invention or aspirin in a 1% aqueous solution of tragacanth was orally given to animals. After 1 hour, 5 mg of carotid artery were cut out in a ring shape and placed into a plastic test tube together with 1 ml of stored PRP. After incubated at 22° C. for 10 minutes, aggregation rate was determined.
Also, non-medicated groups were similarly treated and aggregation rate was determined.
Determination of blood platelet aggregation rate was made by means of an aggregometer.

[7] = tested on: femoral artery; assay: Action on blood flow volume in femoral artery; assay type: in vivo, rabbit (male New Zealand White)
Procedure: as §1, §2

Structure (SMILES): CCC(CC)Nc1nnc(-c2ccccc2)c2ccccc12 [Compound 2, 1-(1-ethylpropylamino)-4-phenylphthalazine]
- Blood pressure in femoral artery, A: Before administration ([1]; 0.01 mg/kg i.v.): 93.8 mmHg
- Blood pressure in femoral artery, B: After administration ([1]; 0.01 mg/kg i.v.): 91.3 mmHg
- Blood pressure in femoral artery, E: Lowering degree ([1]; 0.01 mg/kg i.v.): 2.5 mmHg
- Blood pressure in femoral artery, F: Lowering rate ([1]; 0.01 mg/kg i.v.): 2.7%
- Blood pressure in femoral artery, A: Before administration ([1]; 0.05 mg/kg i.v.): 90.8 mmHg
- Blood pressure in femoral artery, B: After administration ([1]; 0.05 mg/kg i.v.): 83.7 mmHg
- Blood pressure in femoral artery, E: Lowering degree ([1]; 0.05 mg/kg i.v.): 7.1 mmHg
- Blood pressure in femoral artery, F: Lowering rate ([1]; 0.05 mg/kg i.v.): 8.07%
- Blood pressure in femoral artery, A: Before administration ([1]; 0.1 mg/kg i.v.): 88.8 mmHg
- Blood pressure in femoral artery, B: After administration ([1]; 0.1 mg/kg i.v.): 78.1 mmHg
- Blood pressure in femoral artery, E: Lowering degree ([1]; 0.1 mg/kg i.v.): 10.6 mmHg
- Blood pressure in femoral artery, F: Lowering rate ([1]; 0.1 mg/kg i.v.): 11.6%
- Blood pressure in femoral artery, A: Before administration ([1]; 0.5 mg/kg i.v.): 87.5 mmHg
- Blood pressure in femoral artery, B: After administration ([1]; 0.5 mg/kg i.v.): 69.2 mmHg
- Blood pressure in femoral artery, E: Lowering degree ([1]; 0.5 mg/kg i.v.): 18.3 mmHg
- Blood pressure in femoral artery, F: Lowering rate ([1]; 0.5 mg/kg i.v.): 21.2%
- Blood flow volume in carotid artery, A: Before administration ([2]; 0.01 mg/Kg i.v.): 15.6 mL/min
- Blood flow volume in carotid artery, B: After administration ([2]; 0.01 mg/Kg i.v.): 19.4 mL/min
- Blood flow volume in carotid artery, C: Increase degree ([2]; 0.01 mg/Kg i.v.): 3.9 mL/min
- Blood flow volume in carotid artery, D: Increase rate ([2]; 0.01 mg/Kg i.v.): 24.9%
- Blood flow volume in carotid artery, A: Before administration ([2]; 0.05 mg/Kg i.v.): 13.9 mL/min
- Blood flow volume in carotid artery, B: After administration ([2]; 0.05 mg/Kg i.v.): 17.7 mL/min
- Blood flow volume in carotid artery, C: Increase degree ([2]; 0.05 mg/Kg i.v.): 3.8 mL/min
- Blood flow volume in carotid artery, D: Increase rate ([2]; 0.05 mg/Kg i.v.): 24.8%
- Blood flow volume in carotid artery, A: Before administration ([2]; 0.1 mg/Kg i.v.): 14.5 mL/min
- Blood flow volume in carotid artery, B: After administration ([2]; 0.1 mg/Kg i.v.): 22.4 mL/min
- Blood flow volume in carotid artery, C: Increase degree ([2]; 0.1 mg/Kg i.v.): 7.9 mL/min
- Blood flow volume in carotid artery, D: Increase rate ([2]; 0.1 mg/Kg i.v.): 54.3%
- Blood flow volume in carotid artery, A: Before administration ([2]; 0.5 mg/Kg i.v.): 16.7 mL/min
- Blood flow volume in carotid artery, B: After administration ([2]; 0.5 mg/Kg i.v.): 32.1 mL/min
- Blood flow volume in carotid artery, C: Increase degree ([2]; 0.5 mg/Kg i.v.): 15.4 mL/min
- Blood flow volume in carotid artery, D: Increase rate ([2]; 0.5 mg/Kg i.v.): 96.0%
- LD50 [3]: > 8000 mg/kg
- inhibition at 3 mg/kg ([4]; 3 mg/Kg oral (Table 5), read-out: Inhibitory rate of blood platelet aggregation): 39%
- inhibition at 10 mg/kg ([4]; 10 mg/Kg oral (Table 5), read-out: Inhibitory rate of blood platelet aggregation): 70.1%
- inhibition at 10 mg/kg ([4]; 10 mg/Kg oral, 1 hour after administration, collagen 7 to 10 μg/ml, read-out: Inhibitory rate (blood platelet aggregation)): 70.1%
- inhibition at 30 mg/kg ([4]; 30 mg/Kg oral (Table 5), read-out: Inhibitory rate of blood platelet aggregation): 85.5%
- inhibition at 100 mg/kg ([4]; 100 mg/Kg oral (Table 5), read-out: Inhibitory rate of blood platelet aggregation): 100%
- Survival time of dead mice ([5]; 10 mg/Kg oral): 127 ± 14 s
- Mortality ([5]; 10 mg/Kg oral): 86%
- Survival time of dead mice ([5]; 30 mg/Kg oral): 127.5 ± 14 s
- Mortality ([5]; 30 mg/Kg oral): 86%
- Mortality ([5]; 100 mg/Kg oral): 0%
- Mortality ([5]; 300 mg/Kg oral): 0%
- Aggregation rate with ADP when carotid artery ring added ([6]; 3 mg/Kg oral): 0.0%
- Aggregation rate with ADP when carotid artery ring added ([6]; 10 mg/Kg oral): 7.7%
- Aggregation rate with ADP when carotid artery ring added ([6]; 30 mg/Kg oral): 1.3%
- Aggregation rate with ADP when carotid artery ring added ([6]; 100 mg/Kg oral): 23.3%
- Blood flow volume in femoral artery, A: Before administration ([7]; 0.01 mg/Kg i.v.): 20.9 mL/min
- Blood flow volume in femoral artery, B: After administration ([7]; 0.01 mg/Kg i.v.): 26.5 mL/min
- Blood flow volume in femoral artery, C: Increase degree ([7]; 0.01 mg/kg i.v.): 5.6 mL/min
- Blood flow volume in femoral artery, D: Increase rate ([7]; 0.01 mg/kg i.v.): 28.5%
- Blood flow volume in femoral artery, A: Before administration ([7]; 0.05 mg/Kg i.v.): 18.8 mL/min
- Blood flow volume in femoral artery, B: After administration ([7]; 0.05 mg/Kg i.v.): 20.3 mL/min
- Blood flow volume in femoral artery, C: Increase degree ([7]; 0.05 mg/kg i.v.): 3.3 mL/min
- Blood flow volume in femoral artery, D: Increase rate ([7]; 0.05 mg/kg i.v.): 13.4%
- Blood flow volume in femoral artery, A: Before administration ([7]; 0.1 mg/Kg i.v.): 15.9 mL/min
- Blood flow volume in femoral artery, B: After administration ([7]; 0.1 mg/Kg i.v.): 12.5 mL/min
- Blood flow volume in femoral artery, C: Increase degree ([7]; 0.1 mg/kg i.v.): 3.4 mL/min
- Blood flow volume in femoral artery, D: Increase rate ([7]; 0.1 mg/kg i.v.): 23.4%
- Blood flow volume in femoral artery, A: Before administration ([7]; 0.5 mg/Kg i.v.): 19.5 mL/min
- Blood flow volume in femoral artery, B: After administration ([7]; 0.5 mg/Kg i.v.): 13.8 mL/min
- Blood flow volume in femoral artery, C: Increase degree ([7]; 0.5 mg/kg i.v.): 5.7 mL/min
- Blood flow volume in femoral artery, D: Increase rate ([7]; 0.5 mg/kg i.v.): 36.7%
